Assay: Solubility of galactitol (no method)
Type: physicochemical
Settings: galactitol tends to crystallize with xylitol crystals; no solvent or temperature printed

## OC[C@@H](O)[C@H](O)[C@H](O)[C@@H](O)CO [galactitol]
  solubility: very low solubility
